{
  "source": "patent US20110098304A1",
  "about": "“Small molecule inhibitors of PARP activity” (priority 2009, published 2011)",
  "data": [
    {"target": "T1, human PARD-1 (Poly (ADP-Ribose) Polymerase-1) (Homo sapiens, UniProt P09874)", "T1 construct": "purchased Trevigen Inc., Gaithersburg, Md", "T1 sequence (P09874 whole entry)": "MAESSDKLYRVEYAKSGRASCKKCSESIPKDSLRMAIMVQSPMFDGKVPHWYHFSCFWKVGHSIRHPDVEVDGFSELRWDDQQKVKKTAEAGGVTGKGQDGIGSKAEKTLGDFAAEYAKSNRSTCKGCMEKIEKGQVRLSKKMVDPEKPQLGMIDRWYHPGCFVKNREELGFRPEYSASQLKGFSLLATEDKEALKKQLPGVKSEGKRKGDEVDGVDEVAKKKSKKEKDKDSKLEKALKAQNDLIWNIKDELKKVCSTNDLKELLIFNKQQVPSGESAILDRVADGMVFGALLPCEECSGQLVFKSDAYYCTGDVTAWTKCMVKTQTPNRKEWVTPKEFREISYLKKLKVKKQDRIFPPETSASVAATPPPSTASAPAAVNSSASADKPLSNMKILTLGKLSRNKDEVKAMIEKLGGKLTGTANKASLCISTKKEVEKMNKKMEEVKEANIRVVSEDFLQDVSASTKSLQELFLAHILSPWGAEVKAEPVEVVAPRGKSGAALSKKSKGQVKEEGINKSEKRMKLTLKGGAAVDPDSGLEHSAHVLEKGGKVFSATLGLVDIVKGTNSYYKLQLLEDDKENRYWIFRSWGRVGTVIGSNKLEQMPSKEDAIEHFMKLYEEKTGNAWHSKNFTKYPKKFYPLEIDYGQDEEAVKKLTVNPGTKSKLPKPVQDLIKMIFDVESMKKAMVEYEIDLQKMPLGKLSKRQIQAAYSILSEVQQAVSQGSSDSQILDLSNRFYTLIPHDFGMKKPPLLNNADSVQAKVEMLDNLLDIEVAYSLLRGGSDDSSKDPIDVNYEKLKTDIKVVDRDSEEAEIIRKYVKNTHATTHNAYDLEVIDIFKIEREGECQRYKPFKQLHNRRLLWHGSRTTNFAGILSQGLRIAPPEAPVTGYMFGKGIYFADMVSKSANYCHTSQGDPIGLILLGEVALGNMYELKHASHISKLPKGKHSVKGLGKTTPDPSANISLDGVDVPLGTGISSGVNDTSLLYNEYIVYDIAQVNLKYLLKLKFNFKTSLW", "experiment": "Poly (ADP-Ribose) Polymerase-1 in vitro enzyme assay (Universal Colorimetric Assay Kit, Trevigen)", "type": "biochemical", "conditions": "letter codes; read-out: extent of inhibition of PARP activity (IC50, micromolar)", "procedure": "Poly (ADP-Ribose) Polymerase-1 (PARD-1) In Vitro Enzyme Assay: Compounds were screened for inhibitory activity against human PARD-1 in vitro using the Universal Colorimetric PARD Assay Kit (Trevigen Inc., Gaithersburg, Md.) as directed by the supplier. Compounds are assayed in duplicate in 0.5% DMSO final concentration, negative control is no enzyme, while positive control is DMSO vehicle alone. IC50 determinations are made using Microsoft Excel. For all cell assays, compounds are added to cells in 5% DMSO/PBS for a final concentration of 0.5% DMSO.", "units": {"IC50": "µM"}, "values": [
      {"compound": "CN1CCN(c2ccc(-c3n[nH]c(=O)c4ccccc34)cc2NC(=O)Nc2ccc(F)cc2)CC1", "note": "[1-(4-fluorophenyl)-3-(2-(4-methylpiperazin-1-yl)-5-(4-oxo-3,4-dihydrophthalazin-1-yl)phenyl)urea]", "IC50": "0.1 to 1"},
      {"compound": "CN1CCN(c2ccc(-c3n[nH]c(=O)c4ccccc34)cc2NC(=O)NC2CCCCC2)CC1", "note": "[1-cyclohexyl-3-(2-(4-methylpiperazin-1-yl)-5-(4-oxo-3,4-dihydrophthalazin-1-yl)phenyl)urea]", "IC50": "0.1 to 1"},
      {"compound": "CN1CCN(c2ccc(-c3n[nH]c(=O)c4ccccc34)cc2NC(=O)NC2CCCC2)CC1", "note": "[1-cyclopentyl-3-(2-(4-methylpiperazin-1-yl)-5-(4-oxo-3,4-dihydrophthalazin-1-yl)phenyl)urea]", "IC50": "0.1 to 1"},
      {"compound": "CCNC(=O)Nc1cc(-c2n[nH]c(=O)c3ccccc23)ccc1N1CCN(C)CC1", "note": "[1-ethyl-3-(2-(4-methylpiperazin-1-yl)-5-(4-oxo-3,4-dihydrophthalazin-1-yl)phenyl)urea]", "IC50": "1 to 5"},
      {"compound": "CNC(=O)Nc1cc(-c2n[nH]c(=O)c3ccccc23)ccc1N1CCN(C)CC1", "note": "[1-methyl-3-(2-(4-methylpiperazin-1-yl)-5-(4-oxo-3,4-dihydrophthalazin-1-yl)phenyl)urea]", "IC50": "0.1 to 1"},
      {"compound": "CN1CCN(c2ccc(-c3n[nH]c(=O)c4ccccc34)cc2NC(=O)NC(C)(C)C)CC1", "note": "[1-tert-butyl-3-(2-(4-methylpiperazin-1-yl)-5-(4-oxo-3,4-dihydrophthalazin-1-yl)phenyl)urea]", "IC50": "0.1 to 1"},
      {"compound": "Nc1cc(-c2n[nH]c(=O)c3ccccc23)ccc1N1CCN(CC(=O)O)CC1", "note": "[2-(4-(2-amino-4-(4-oxo-3,4-dihydrophthalazin-1-yl)phenyl)piperazin-1-yl)acetic acid]", "IC50": "0.001 to 0.1"},
      {"compound": "CN1CCN(c2ccc(-c3n[nH]c(=O)c4ccccc34)cc2NC(=O)CCl)CC1", "note": "[2-chloro-N-(2-(4-methylpiperazin-1-yl)-5-(4-oxo-3,4-dihydrophthalazin-1-yl)phenyl)acetamide]", "IC50": "0.1 to 1"},
      {"compound": "N#CCCN1CCN(c2ccc(-c3n[nH]c(=O)c4ccccc34)cc2N)CC1", "note": "[3-(4-(2-amino-4-(4-oxo-3,4-dihydrophthalazin-1-yl)phenyl)piperazin-1-yl)propanenitrile]", "IC50": "0.001 to 0.1"},
      {"compound": "Nc1cc(-c2n[nH]c(=O)c3ccccc23)ccc1N1CCN(CCC(=O)O)CC1", "note": "[3-(4-(2-amino-4-(4-oxo-3,4-dihydrophthalazin-1-yl)phenyl)piperazin-1-yl)propanoic acid]", "IC50": "0.1 to 1"},
      {"compound": "CN1CCN(c2ccc(-c3n[nH]c(=O)c4ccccc34)cc2NC(=O)c2cccc(C#N)c2)CC1", "note": "[3-cyano-N-(2-(4-methylpiperazin-1-yl)-5-(4-oxo-3,4-dihydrophthalazin-1-yl)phenyl)benzamide]", "IC50": "0.1 to 1"},
      {"compound": "CN1CCC(N2CCN(c3ccc(-c4n[nH]c(=O)c5ccccc45)cc3N)CC2)CC1", "note": "[4-(3-amino-4-(4-(1-methylpiperidin-4-yl)piperazin-1-yl)phenyl)phthalazin-1(2H)-one]", "IC50": "0.001 to 0.1"},
      {"compound": "CN(C)CCN1CCN(c2ccc(-c3n[nH]c(=O)c4ccccc34)cc2N)CC1", "note": "[4-(3-amino-4-(4-(2-(dimethylamino)ethyl)piperazin-1-yl)phenyl)phthalazin-1(2H)-one]", "IC50": "0.1 to 1"},
      {"compound": "Nc1ccccc1N1CCN(c2ccc(-c3n[nH]c(=O)c4ccccc34)cc2N)CC1", "note": "[4-(3-amino-4-(4-(2-aminophenyl)piperazin-1-yl)phenyl)phthalazin-1(2H)-one]", "IC50": "1 to 5"},
      {"compound": "Nc1cc(-c2n[nH]c(=O)c3ccccc23)ccc1N1CCN(CCO)CC1", "note": "[4-(3-amino-4-(4-(2-hydroxyethyl)piperazin-1-yl)phenyl)phthalazin-1(2H)-one]", "IC50": "0.001 to 0.1"},
      {"compound": "COCCN1CCN(c2ccc(-c3n[nH]c(=O)c4ccccc34)cc2N)CC1", "note": "[4-(3-amino-4-(4-(2-methoxyethyl)piperazin-1-yl)phenyl)phthalazin-1(2H)-one]", "IC50": "0.1 to 1"},
      {"compound": "Nc1cc(-c2n[nH]c(=O)c3ccccc23)ccc1N1CCN(CCCO)CC1", "note": "[4-(3-amino-4-(4-(3-hydroxypropyl)piperazin-1-yl)phenyl)phthalazin-1(2H)-one]", "IC50": "0.001 to 0.1"},
      {"compound": "Nc1cc(-c2n[nH]c(=O)c3ccccc23)ccc1N1CCN(CC2CCCO2)CC1", "note": "(stereo not drawn) [4-(3-amino-4-(4-((tetrahydrofuran-2-yl)methyl)piperazin-1-yl)phenyl)phthalazin-1(2H)-one]", "IC50": "0.1 to 1"},
      {"compound": "Nc1cc(-c2n[nH]c(=O)c3ccccc23)ccc1N1CCN(CC2CCCCC2)CC1", "note": "[4-(3-amino-4-(4-(cyclohexylmethyl)piperazin-1-yl)phenyl)phthalazin-1(2H)-one]", "IC50": "0.001 to 0.1"},
      {"compound": "Nc1cc(-c2n[nH]c(=O)c3ccccc23)ccc1N1CCN(CC2CC2)CC1", "note": "[4-(3-amino-4-(4-(cyclopropylmethyl)piperazin-1-yl)phenyl)phthalazin-1(2H)-one]", "IC50": "0.001 to 0.1"},
      {"compound": "Nc1cc(-c2n[nH]c(=O)c3ccccc23)ccc1N1CCN(Cc2cccnc2)CC1", "note": "[4-(3-amino-4-(4-(pyridin-3-ylmethyl)piperazin-1-yl)phenyl)phthalazin-1(2H)-one]", "IC50": "0.001 to 0.1"},
      {"compound": "Nc1cc(-c2n[nH]c(=O)c3ccccc23)ccc1N1CCN(c2ccncc2)CC1", "note": "[4-(3-amino-4-(4-(pyridin-4-yl)piperazin-1-yl)phenyl)phthalazin-1(2H)-one]", "IC50": "0.001 to 0.1"},
      {"compound": "Nc1cc(-c2n[nH]c(=O)c3ccccc23)ccc1N1CCN(Cc2ccncc2)CC1", "note": "[4-(3-amino-4-(4-(pyridin-4-ylmethyl)piperazin-1-yl)phenyl)phthalazin-1(2H)-one]", "IC50": "0.001 to 0.1"},
      {"compound": "Nc1cc(-c2n[nH]c(=O)c3ccccc23)ccc1N1CCN(Cc2ccccc2)CC1", "note": "[4-(3-amino-4-(4-benzylpiperazin-1-yl)phenyl)phthalazin-1(2H)-one]", "IC50": "0.1 to 1"},
      {"compound": "Nc1cc(-c2n[nH]c(=O)c3ccccc23)ccc1N1CCN(C2CCCC2)CC1", "note": "[4-(3-amino-4-(4-cyclopentylpiperazin-1-yl)phenyl)phthalazin-1(2H)-one]", "IC50": "0.001 to 0.1"},
      {"compound": "Nc1cc(-c2n[nH]c(=O)c3ccccc23)ccc1N1CCN(C2CC2)CC1", "note": "[4-(3-amino-4-(4-cyclopropylpiperazin-1-yl)phenyl)phthalazin-1(2H)-one]", "IC50": "0.001 to 0.1"},
      {"compound": "CCN1CCN(c2ccc(-c3n[nH]c(=O)c4ccccc34)cc2N)CC1", "note": "[4-(3-amino-4-(4-ethylpiperazin-1-yl)phenyl)phthalazin-1(2H)-one]", "IC50": "0.001 to 0.1"},
      {"compound": "Nc1cc(-c2n[nH]c(=O)c3ccccc23)ccc1N1CCN(C(=O)c2ccncc2)CC1", "note": "[4-(3-amino-4-(4-isonicotinoylpiperazin-1-yl)phenyl)phthalazin-1(2H)-one]", "IC50": "0.1 to 1"},
      {"compound": "CC(C)N1CCN(c2ccc(-c3n[nH]c(=O)c4ccccc34)cc2N)CC1", "note": "[4-(3-amino-4-(4-isopropylpiperazin-1-yl)phenyl)phthalazin-1(2H)-one]", "IC50": "0.001 to 0.1"},
      {"compound": "CN1CCN(c2ccc(-c3n[nH]c(=O)c4ccccc34)cc2N)CC1", "note": "[4-(3-amino-4-(4-methylpiperazin-1-yl)phenyl)phthalazin-1(2H)-one]", "IC50": "0.001 to 0.1"},
      {"compound": "CC(C)(C)N1CCN(c2ccc(-c3n[nH]c(=O)c4ccccc34)cc2N)CC1", "note": "[4-(3-amino-4-(4-tert-butylpiperazin-1-yl)phenyl)phthalazin-1(2H)-one]", "IC50": "0.001 to 0.1"},
      {"compound": "Nc1cc(-c2n[nH]c(=O)c3ccccc23)ccc1N1CCNCC1", "note": "[4-(3-amino-4-(piperazin-1-yl)phenyl)phthalazin-1(2H)-one]", "IC50": "0.001 to 0.1"},
      {"compound": "CC(=O)Nc1cc(-c2n[nH]c(=O)c3ccccc23)ccc1N1CCN(C(C)=O)CC1", "note": "[N-(2-(4-acetylpiperazin-1-yl)-5-(4-oxo-3,4-dihydrophthalazin-1-yl)phenyl)acetamide]", "IC50": "1 to 5"},
      {"compound": "CCN1CCN(c2ccc(-c3n[nH]c(=O)c4ccccc34)cc2NC(C)=O)CC1", "note": "[N-(2-(4-ethylpiperazin-1-yl)-5-(4-oxo-3,4-dihydrophthalazin-1-yl)phenyl)acetamide]", "IC50": "1 to 5"},
      {"compound": "CCN1CCN(c2ccc(-c3n[nH]c(=O)c4ccccc34)cc2NC(=O)C(C)(C)C)CC1", "note": "[N-(2-(4-ethylpiperazin-1-yl)-5-(4-oxo-3,4-dihydrophthalazin-1-yl)phenyl)pivalamide]", "IC50": "> 5"},
      {"compound": "CC(=O)Nc1cc(-c2n[nH]c(=O)c3ccccc23)ccc1N1CCN(C(C)C)CC1", "note": "[N-(2-(4-isopropylpiperazin-1-yl)-5-(4-oxo-3,4-dihydrophthalazin-1-yl)phenyl)acetamide]", "IC50": "1 to 5"},
      {"compound": "CN1CCN(c2ccc(-c3n[nH]c(=O)c4ccccc34)cc2NC(=O)Cc2cccs2)CC1", "note": "[N-(2-(4-methylpiperazin-1-yl)-5-(4-oxo-3,4-dihydrophthalazin-1-yl)phenyl)-2-(thiophen-2-yl)acetamide]", "IC50": "1 to 5"},
      {"compound": "CC(=O)Nc1cc(-c2n[nH]c(=O)c3ccccc23)ccc1N1CCN(C)CC1", "note": "[N-(2-(4-methylpiperazin-1-yl)-5-(4-oxo-3,4-dihydrophthalazin-1-yl)phenyl)acetamide]", "IC50": "0.1 to 1"},
      {"compound": "CN1CCN(c2ccc(-c3n[nH]c(=O)c4ccccc34)cc2NC(=O)c2ccc3c(c2)OCO3)CC1", "note": "[N-(2-(4-methylpiperazin-1-yl)-5-(4-oxo-3,4-dihydrophthalazin-1-yl)phenyl)benzo[d][1,3]dioxole-5-carboxamide]", "IC50": "0.1 to 1"},
      {"compound": "CN1CCN(c2ccc(-c3n[nH]c(=O)c4ccccc34)cc2NC(=O)C2CCCCC2)CC1", "note": "[N-(2-(4-methylpiperazin-1-yl)-5-(4-oxo-3,4-dihydrophthalazin-1-yl)phenyl)cyclohexanecarboxamide]", "IC50": "0.1 to 1"},
      {"compound": "CN1CCN(c2ccc(-c3n[nH]c(=O)c4ccccc34)cc2NC(=O)c2ccco2)CC1", "note": "[N-(2-(4-methylpiperazin-1-yl)-5-(4-oxo-3,4-dihydrophthalazin-1-yl)phenyl)furan-2-carboxamide]", "IC50": "0.1 to 1"},
      {"compound": "CC(C)C(=O)Nc1cc(-c2n[nH]c(=O)c3ccccc23)ccc1N1CCN(C)CC1", "note": "[N-(2-(4-methylpiperazin-1-yl)-5-(4-oxo-3,4-dihydrophthalazin-1-yl)phenyl)isobutyramide]", "IC50": "1 to 5"}
    ]}
  ]
}
